Test results taken from patent publication US20130143929A1, “FUNGICIDAL IMIDAZOLES” (EI DU PONT DE NEMOURS AND COMPANY, priority 2010, published 2013).
Marks after values point to notes of the source that are not given here.

Tests used:
Assay type in all cases: in vivo
[1] = system: Botrytis cinerea (the causal agent of tomato Botrytis); assay: Test C: tomato Botrytis, preventive spray on tomato seedlings, visual disease rating; conditions: tomato Botrytis, preventive spray on tomato seedlings
In short: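 Preventive test: B. cinerea spore inoculation one day after tomato seedlings were sprayed to run-off with compound suspended in 50/50 acetone–water plus 250 ppm surfactant. Plants held 48 h at 20° C in saturated air, then 3 days at 24° C; visual ratings scored 100 (full control) to 0 versus controls; some entries used 40 ppm.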

[2] = system: Blumeria graminis f. sp. tritici (also known as Erysiphe graminis f. sp. tritici, the causal agent of wheat powdery mildew); assay: Test D: wheat powdery mildew, preventive spray on wheat seedlings, visual disease rating; conditions: wheat powdery mildew, preventive spray on wheat seedlings
In short: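 Preventive test: seedlings sprayed to run-off and inoculated with powdery mildew spores one day later. Suspensions were made in 50/50 acetone/water with 250 ppm Trem 014 surfactant (200 ppm equals 800 g/ha). Visual ratings after 8 days at 20 °C give percent disease control versus controls.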

[3] = system: Septoria tritici (the causal agent of wheat leaf blotch); assay: Test B: wheat leaf blotch, preventive spray on wheat seedlings, visual disease rating; conditions: wheat leaf blotch, preventive spray on wheat seedlings
In short: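 Preventive test: Septoria tritici spores applied one day after run-off spraying of seedlings (200 ppm equals 800 g/ha; some tests 40 ppm). After 48 h at 24 °C saturated atmosphere and 19 days at 20 °C, disease scored visually as % control relative to untreated plants.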

[4] = system: Puccinia recondite f. sp. tritici (the causal agent of wheat leaf rust); assay: Test A: wheat leaf rust, preventive spray on wheat seedlings, visual disease rating; conditions: wheat leaf rust, preventive spray on wheat seedlings
In short: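 This was a preventive test: Puccinia recondite f. sp. tritici inoculum was applied one day after compound spray to run-off. Test suspensions were made in 50/50 acetone/water with 250 ppm surfactant, at 200 ppm (800 g/ha equivalent) or 40 ppm. Visual ratings of % disease control relative to controls were made after 24 h of saturated humidity and 7 growth-chamber days, all at 20° C.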

[5] = no asterisk (standard test suspension concentration, not 40 ppm)
[6] = asterisk: 40 ppm test suspension

Compound	Test C rating (100 = 100% disease control, 0 = no disease control relative to the controls) [1, 5] [%]	Test D rating (100 = 100% disease control, 0 = no disease control relative to the controls) [2, 5] [%]	Test B rating (100 = 100% disease control, 0 = no disease control relative to the controls) [3, 5] [%]	Test A rating (100 = 100% disease control, 0 = no disease control relative to the controls) [4, 5] [%]	Test C rating (100 = 100% disease control, 0 = no disease control relative to the controls) [1, 6]	Test D rating (100 = 100% disease control, 0 = no disease control relative to the controls) [2, 6]	Test B rating (100 = 100% disease control, 0 = no disease control relative to the controls) [3, 6]	Test A rating (100 = 100% disease control, 0 = no disease control relative to the controls) [4, 6]
Cc1ncc(C(O)c2ccc(F)cc2Cl)n1-c1ccc(F)cc1Cl (stereo not shown) [compound 171]	95	0	100	100	–	–	–	–
Cc1nc(Br)c(C(O)c2ccc(Cl)cc2)n1-c1ccc(F)cc1Br (stereo not shown) [compound 172]	100	90	100	100	–	–	–	–
Cc1cc(F)ccc1C(O)c1c(Br)nc(C)n1-c1ccc(F)cc1Br (stereo not shown) [compound 173]	16	48	100	99	–	–	–	–
Cc1ncc(C(O)c2c(F)cc(F)cc2F)n1-c1ccc(F)cc1Br (stereo not shown) [compound 174]	0	0	35	88	–	–	–	–
Cc1ncc(C(O)c2c(F)cc(F)cc2F)n1-c1ccc(F)cc1F (stereo not shown) [compound 175]	9	0	3	97	–	–	–	–
Cc1nc(Br)c(C(O)c2c(F)cc(F)cc2F)n1-c1ccc(F)cc1Br (stereo not shown) [compound 176]	100	96	100	100	–	–	–	–
Cc1nc(Br)c(C(O)c2c(F)cc(F)cc2F)n1-c1ccc(F)cc1F (stereo not shown) [compound 177]	99	0	100	100	–	–	–	–
Cc1nc(Br)c(C(O)c2ccc(F)cc2F)n1-c1c(F)cccc1F (stereo not shown) [compound 178]	–	–	–	–	96* %	64* %	100* %	100* %
Cc1nc(Br)c(C(O)c2ccc(Cl)cc2F)n1-c1c(F)cccc1F (stereo not shown) [compound 179]	–	–	–	–	78* %	43* %	100* %	68* %
Cc1nc(Cl)c(C(O)c2ccc(C#N)cc2F)n1-c1c(F)cccc1F (stereo not shown) [compound 180]	–	–	–	–	0* %	0* %	48* %	0* %
Cc1ncc(C(O)c2cccnc2)n1-c1c(F)cc(F)cc1F (stereo not shown) [compound 181]	0	0	1	0	–	–	–	–
Cc1nc(Br)c(C(O)c2cccnc2)n1-c1c(F)cc(F)cc1F (stereo not shown) [compound 182]	0	21	100	68	–	–	–	–
COc1cc(F)c(-n2c(C)nc(Cl)c2C(O)c2ccc(F)cc2C)c(F)c1 (stereo not shown) [compound 183]	–	–	–	–	8* %	0* %	100* %	86* %
Cc1cc(F)ccc1C(O)c1c(Br)nc(C)n1-c1c(F)cccc1Cl (stereo not shown) [compound 186]	–	–	–	–	99* %	97* %	100* %	99* %
Cc1nc(Br)c(C(O)c2ccc(F)cc2Cl)n1-c1c(F)cccc1Cl (stereo not shown) [compound 188]	–	–	–	–	99* %	99* %	100* %	100* %
Cc1ncc(C(O)c2ccc(F)cc2Cl)n1-c1ccc(F)cc1Br (stereo not shown) [compound 189]	99	27	100	100	–	–	–	–
Cc1nc(Br)c(C(O)c2ccc(F)cc2Cl)n1-c1ccc(F)cc1Br (stereo not shown) [compound 190]	99	0	100	100	–	–	–	–
Cc1ccc(C(O)c2c(Cl)nc(C)n2-c2c(F)cccc2F)c(C)c1 (stereo not shown) [compound 191]	–	–	–	–	80* %	99* %	100* %	100* %
COc1cc(F)c(C(O)c2c(Cl)nc(C)n2-c2c(F)cccc2F)c(F)c1 (stereo not shown) [compound 192]	–	–	–	–	100* %	53* %	100* %	100* %
Cc1nc(Cl)c(C(O)c2c(Cl)cccc2Cl)n1-c1c(F)cccc1F (stereo not shown) [compound 193]	–	–	–	–	59* %	0* %	100* %	99* %
Cc1nc(Br)c(C(O)c2c(Cl)cccc2Cl)n1-c1c(F)cccc1F (stereo not shown) [compound 194]	–	–	–	–	77* %	0* %	100* %	99* %
Cc1nc(Cl)c(C(O)c2ccc(F)cc2Cl)n1-c1c(F)cc(C#N)cc1F (stereo not shown) [compound 198]	–	–	–	–	0* %	0* %	100* %	97* %
